Experimental data from US12403129B2, “Isotope-enriched 3-amino-1-propanesulfonic acid derivatives for the treatment of cerebrovascular disease” (RISEN (SUZHOU) PHARMA TECH CO., LTD., priority 2021, dated 2025).

Tests used:
[1] = tested on: MBP; experiment: MBP expression in ischemia-reperfusion dementia mice; type: in vivo, C57BL/6J mice; conditions: compared with the model group
Procedure: (§1) 140 healthy C57BL/6J mice, including 70 males and 70 females, were used. 1% Pentobarbital Sodium (50 mg/kg) was injected intraperitoneally to anesthetize the mice. The back position was fixed, the neck hair was removed, and the common carotid arteries were cut along the middle of the neck after iodophor disinfection. The common carotid arteries were separated, clamped with a noninvasive artery clamp for 15 minutes, released for 10 minutes, and then clamped for 10 minutes. Penicillin powder was then applied to suture muscles and skin. The sham operation group was not clamped, and other operations were the same as for the model group. […]
(§2) The main pathological index included: investigation of the improvement of learning and memory impairment by the compound in the pathogenic model of cerebral ischemia-reperfusion using behavioral experimental methods such as Y maze, new object discrimination, spontaneous activity, Morris water maze and passive avoidance experiment (dark avoidance); investigation of the ultrastructure of nerve cells (including nucleus, mitochondria and synapse) by HE staining and immunofluorescence; detection of expression of synaptic associated proteins SYP and PSD95 by Western blotting; and detection of expression of apoptosis-related proteins Bcl-2 and Bax by Western blotting. […] Experimental results were analyzed statistically using IBM SPSS 21.0 software. […]

[2] = tested on: SYP; experiment: SYP expression in hippocampus by Western blotting, ischemia-reperfusion dementia mice; type: in vivo, C57BL/6J mice
Procedure: Compound 4, 85 mg/kg, bid; D. Compound 4, 170 mg/kg, bid; E. Compound 4, 340 mg/kg, bid; F. Donepezil, 1.3 mg/kg. Compared with sham operation group, ## P<0.01; Compared with the model group, * P<0.05.
(§3) 140 healthy C57BL/6J mice, including 70 males and 70 females, were used. 1% Pentobarbital Sodium (50 mg/kg) was injected intraperitoneally to anesthetize the mice. The back position was fixed, the neck hair was removed, and the common carotid arteries were cut along the middle of the neck after iodophor disinfection. The common carotid arteries were separated, clamped with a noninvasive artery clamp for 15 minutes, released for 10 minutes, and then clamped for 10 minutes. Penicillin powder was then applied to suture muscles and skin. The sham operation group was not clamped, and other operations were the same as for the model group. […] Mice were divided into 6 groups: sham operation group, model group, positive control group (donepezil) and test compound group (different doses). Test compounds were administered by gavage to each group on the next day of modeling. The compound group was given compounds once a day in the morning and evening, and the volume of each gavage was 10 ml/kg. Half of the animals in the sham operation group and the model group were given the same amount of distilled water, and half of the animals were given the same amount of 1% sodium carboxymethylcellulose solution. […]

[3] = tested on: nitric oxide (NO); experiment: NO concentration in cerebral cortex, multiple cerebral infarction dementia rats; type: in vivo, SD rats; conditions: compared with the model group, p<0.05
Procedure: (§4) Compound 4, 120 mg/kg, bid; D. Compound 4, 240 mg/kg, bid; E. Compound 4, 480 mg/kg, bid; F. Donepezil, 0.9 mg/kg. Compared with sham operation group: ### P<0.001; Compared with the model group: ** P<0.01, *** P<0.001.
(§5) 135 SPF grade SD rats (75 females, 60 males, weighing 200-220 g) were used. Anesthesia was performed by intraperitoneal injection of 3.5% chloral hydrate (350 mg/kg). After dorsal fixation, neck hair removal and iodophor disinfection, animals were cut along the middle of the neck to separate the right common carotid artery, external carotid artery and internal carotid artery. The common carotid artery was temporarily clamped by the artery clamp, the left external carotid artery was retrogradely punctured to the beginning of the left internal carotid artery with a pediatric scalp needle, and then 0.4 ml of embolic normal saline suspension was slowly injected with a syringe (the preparation of embolic normal saline suspension was as follows: blood was collected from the abdominal aorta of the same rat, dried naturally in a 37° C. incubator, and prepared for 80-200 minutes to form a blood clot; during application, 0.3 ml normal saline was added to every 10 mg blood clot), and the common carotid artery clamp was opened at the same time, then the external carotid artery was ligated and the skin was sutured. […]

[4] = tested on: mouse model of dementia caused by cerebral ischemia-reperfusion; experiment: Cognitive tests in mouse model of dementia caused by cerebral ischemia-reperfusion; type: in vivo, C57BL/6J mice
Procedure: 140 healthy C57BL/6J mice, including 70 males and 70 females, were used. 1% Pentobarbital Sodium (50 mg/kg) was injected intraperitoneally to anesthetize the mice. The back position was fixed, the neck hair was removed, and the common carotid arteries were cut along the middle of the neck after iodophor disinfection. The common carotid arteries were separated, clamped with a noninvasive artery clamp for 15 minutes, released for 10 minutes, and then clamped for 10 minutes. Penicillin powder was then applied to suture muscles and skin. The sham operation group was not clamped, and other operations were the same as for the model group. […] Mice were divided into 6 groups: sham operation group, model group, positive control group (donepezil) and test compound group (different doses). Test compounds were administered by gavage to each group on the next day of modeling. The compound group was given compounds once a day in the morning and evening, and the volume of each gavage was 10 ml/kg. Half of the animals in the sham operation group and the model group were given the same amount of distilled water, and half of the animals were given the same amount of 1% sodium carboxymethylcellulose solution. From the 16th day of administration, Y maze, new object discrimination (days 17-20), spontaneous activity (days 20), Morris water maze (days 23-28) and dark avoidance experiment (days 29-30) were carried out successively. During the behavioral experiment, the administration of compound was continued until the animals were sacrificed.
The main pathological index included: investigation of the improvement of learning and memory impairment by the compound in the pathogenic model of cerebral ischemia-reperfusion using behavioral experimental methods such as Y maze, new object discrimination, spontaneous activity, Morris water maze and passive avoidance experiment (dark avoidance); investigation of the ultrastructure of nerve cells (including nucleus, mitochondria and synapse) by HE staining and immunofluorescence; detection of expression of synaptic associated proteins SYP and PSD95 by Western blotting; and detection of expression of apoptosis-related proteins Bcl-2 and Bax by Western blotting. The experimental results for compound 4 on the expression of SYP and PSD95 in the hippocampus of dementia model mice induced by cerebral ischemia-reperfusion are shown in FIG. 5 and FIG. 6 and in Table V below. Experimental results were analyzed statistically using IBM SPSS 21.0 software. The differences between groups were compared by one-way ANOVA or two-way ANOVA (water maze directional navigation) and LSD test. Experimental data were expressed by “mean±SEM”, P<0.05.

[5] = tested on: nitric oxide synthase (NOS); experiment: NOS activity in cerebral cortex, multiple cerebral infarction dementia rats; type: in vivo, SD rats; conditions: compared with the model group, p<0.05
Procedure: as §4, §5

[6] = tested on: SYP; experiment: SYP expression by Western blotting, multiple cerebral infarction dementia rats; type: in vivo, SD rats; conditions: compared with the model group, p<0.05
Procedure: (§6) 135 SPF grade SD rats (75 females, 60 males, weighing 200-220 g) were used. Anesthesia was performed by intraperitoneal injection of 3.5% chloral hydrate (350 mg/kg). After dorsal fixation, neck hair removal and iodophor disinfection, animals were cut along the middle of the neck to separate the right common carotid artery, external carotid artery and internal carotid artery. […]
(§7) The main pathological indexes included investigation of the improvement of learning and memory impairment in the dementia model animal by test compound using behavioral experimental methods such as Y maze, new object discrimination, Morris water maze and passive avoidance test (dark avoidance); investigation of the protective effect of test compound on mitochondria by detecting the content of ATP in hippocampus and cortex of rats; and investigation of levels of oxidative stress in the rat brain by measuring activity of superoxide dismutase (SOD, which is an oxygen free-radical scavenger), glutathione peroxidase (GSH-Px, which scavenges lipid peroxides induced by reactive oxygen species and —OH), nitric oxide synthase (NOS), malondialdehyde (MDA), and nitric oxide (NO). […] Expression of synaptic associated proteins SYP and PSD95 was detected by Western blotting. […] Experimental results were statistically analyzed using IBM SPSS 21.0 software. […]

[7] = tested on: PSD95; experiment: PSD95 expression in hippocampus by Western blotting, ischemia-reperfusion dementia mice; type: in vivo, C57BL/6J mice
Procedure: Compound 4, 85 mg/kg, bid; D. Compound 4, 170 mg/kg, bid; E. Compound 4, 340 mg/kg, bid; F. Donepezil, 1.3 mg/kg. Compared with sham operation group: ### P<0.001; Compared with the model group: ** P<0.01, *** P<0.001.
as §3, with “ml/kg.” for “ml/kg. Half of the animals in the sham operation group and the model group were given the same amount of distilled water, and half of the animals were given the same amount of 1% sodium carboxymethylcellulose solution.”

[8] = tested on: Bcl-2; experiment: Bcl-2 expression by Western blotting, ischemia-reperfusion dementia mice; type: in vivo, C57BL/6J mice
Procedure: as §1, §2

[9] = tested on: Bax; experiment: Bax expression by Western blotting, ischemia-reperfusion dementia mice; type: in vivo, C57BL/6J mice
Procedure: as §1, §2

[10] = tested on: nerve cells (nucleus, mitochondria and synapse); experiment: Ultrastructure of nerve cells (transmission electron microscope), multiple cerebral infarction dementia rats; type: in vivo, SD rats; conditions: compared with the model group, p<0.05
Procedure: Compound 4, 120 mg/kg, bid; D. Compound 4, 240 mg/kg, bid; E. Compound 4, 480 mg/kg, bid; F. Donepezil, 0.9 mg/kg.
as §6
The main pathological indexes included investigation of the improvement of learning and memory impairment in the dementia model animal by test compound using behavioral experimental methods such as Y maze, new object discrimination, Morris water maze and passive avoidance test (dark avoidance); investigation of the protective effect of test compound on mitochondria by detecting the content of ATP in hippocampus and cortex of rats; and investigation of levels of oxidative stress in the rat brain by measuring activity of superoxide dismutase (SOD, which is an oxygen free-radical scavenger), glutathione peroxidase (GSH-Px, which scavenges lipid peroxides induced by reactive oxygen species and —OH), nitric oxide synthase (NOS), malondialdehyde (MDA), and nitric oxide (NO). […] Expression of synaptic associated proteins SYP and PSD95 was detected by Western blotting. […]

[11] = tested on: ATP; experiment: ATP content of hippocampus and cortex, multiple cerebral infarction dementia rats; type: in vivo, SD rats; conditions: compared with the model group, p<0.05
Procedure: as §6, §7

[12] = Test group vs model group, n = 15-17, dose not stated
[13] = mice, gavage, morning and evening

SMILES: [2H]C([2H])(CCS(=O)(=O)O)NC(=O)[C@@H](N)C(C)C [compound 4, 3-((L-valyl)amino)-3,3-dideuterium-1-propanesulfonic Acid]
- expression of MBP in hippocampal CA1 area and cerebral cortex [1]: increased
- SYP expression, p compared with model group [2, 12]: p < 0.05
- expression of SYP ([2]; compared with the model group): increased
- NO content [3]: significantly reduced
- Discrimination coefficient for new objects, p compared with model group [4, 12]: p < 0.05
- Percentage of swimming distance, p compared with model group [4, 12]: p < 0.05
- Priority index for new objects, p compared with model group [4, 12]: p < 0.05
- Spontaneous alternating response rate, p compared with model group [4, 12]: p < 0.05
- Swimming time in target quadrant, p compared with model group [4, 12]: p < 0.05
- The incubation period for entering the darkroom, p compared with model group [4, 12]: p < 0.05
- Times of crossing the platform, p compared with model group [4, 12]: p < 0.01
- discrimination coefficient to new objects in the new object discrimination experiment [4, 13]: improved
- incubation period of entering the dark room in the dark avoidance experiment [4, 13]: prolonged
- number of times of crossing the platform [4, 13]: increased
- percentage of swimming distance in the target quadrant [4, 13]: improved
- priority index to new objects in the new object discrimination experiment [4, 13]: improved
- spontaneous alternating response rate in the Y maze experiment [4, 13]: significantly improved
- swimming time in the target quadrant in the water maze test [4, 13]: prolonged
- working memory, image recognition memory, spatial memory and long-term memory impairment ([4]; vascular dementia mice caused by cerebral ischemia-reperfusion): can significantly improve
- NOS activity [5]: significantly reduced
- SYP expression [6]: significantly increased
- PSD95 expression, p compared with model group [7, 12]: p < 0.001
- expression of PSD95 ([7]; compared with the model group): increased
- Bcl-2 expression, p compared with model group [8, 12]: p < 0.01
- expression of Bcl-2 ([8]; compared with the model group): increased
- Bax expression, p compared with model group [9, 12]: p < 0.01
- expression of Bax ([9]; compared with the model group): reduced
- ultrastructure of nerve cells [10]: improved
- ATP content of hippocampus and cerebral cortex [11]: significantly increased
